Experimental data as given in ChEMBL document CHEMBL1146077, “Synthesis and evaluation of heteroaryl-substituted dihydronaphthalenes and indenes: potent and selective inhibitors of aldosterone synthase (CYP11B2) for the treatment of congestive heart failure and myocardial fibrosis” (J Med Chem, 2006).

How the values were obtained:
[1] = Permeability in Caco-2 cell; settings: human
[2] = target: T1, Cytochrome P450 11B2, mitochondrial (Homo sapiens, UniProt P19099); assay: Inhibition of human CYP11B2 expressed in Schizosaccharomyces pombe at 500 nM
T1 sequence (P19099 whole entry): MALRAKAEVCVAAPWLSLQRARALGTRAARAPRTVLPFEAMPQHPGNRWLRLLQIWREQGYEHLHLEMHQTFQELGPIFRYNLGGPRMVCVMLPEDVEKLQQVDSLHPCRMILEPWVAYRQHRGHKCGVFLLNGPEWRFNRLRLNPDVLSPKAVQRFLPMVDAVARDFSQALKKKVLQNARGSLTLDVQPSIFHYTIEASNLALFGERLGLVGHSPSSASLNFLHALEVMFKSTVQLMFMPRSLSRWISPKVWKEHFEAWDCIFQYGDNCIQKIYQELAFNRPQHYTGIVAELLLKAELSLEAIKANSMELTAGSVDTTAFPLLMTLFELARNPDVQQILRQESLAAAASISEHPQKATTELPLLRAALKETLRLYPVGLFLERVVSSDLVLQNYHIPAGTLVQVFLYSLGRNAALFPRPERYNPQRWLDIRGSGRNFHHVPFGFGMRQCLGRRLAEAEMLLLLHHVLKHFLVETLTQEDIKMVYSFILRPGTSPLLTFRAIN

[3] = Half life in rat liver microsome; assay type: ADME; settings: liver microsomes
[4] = target: T2, Cytochrome P450 11B1, mitochondrial (Homo sapiens, UniProt P15538); assay: Inhibition of human CYP11B1 expressed in V79 11B1 cells
T2 sequence (P15538 whole entry): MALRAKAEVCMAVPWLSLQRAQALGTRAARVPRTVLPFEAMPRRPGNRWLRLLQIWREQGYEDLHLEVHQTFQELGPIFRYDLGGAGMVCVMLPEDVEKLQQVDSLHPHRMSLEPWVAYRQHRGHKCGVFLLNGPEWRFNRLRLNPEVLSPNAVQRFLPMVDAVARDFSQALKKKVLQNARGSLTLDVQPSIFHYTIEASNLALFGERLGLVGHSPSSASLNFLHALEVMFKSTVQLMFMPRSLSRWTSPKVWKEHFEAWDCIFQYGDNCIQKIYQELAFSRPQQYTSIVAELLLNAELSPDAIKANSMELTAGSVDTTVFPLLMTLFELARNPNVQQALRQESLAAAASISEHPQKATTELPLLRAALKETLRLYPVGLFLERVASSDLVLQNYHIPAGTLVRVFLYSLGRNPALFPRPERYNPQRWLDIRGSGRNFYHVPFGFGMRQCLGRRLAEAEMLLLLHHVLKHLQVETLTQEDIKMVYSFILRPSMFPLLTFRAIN

[5] = target: T1, Cytochrome P450 11B2, mitochondrial; assay: Inhibition of human CYP11B2 expressed in V79 11B2 cells

Row | Structure (SMILES) | Papp [1] | inhibition at 0.5 µM [2] | half-life [3] | IC50 [4] | IC50 [5]
1 | COc1ccc2c(c1)CCC(c1cccnc1)=C2 | 13.5 ×10⁻⁶ cm/s | 98% | 1.12 h | – | –
2 | CCC1CC(c2cccnc2)=Cc2ccccc21 (stereo not given) | – | 20% | – | 1620 nM | 176 nM
3 | CC(C(=O)O)c1cccc(C(=O)c2ccccc2)c1 (stereo not given) [KETOPROFEN] | 25.7 ×10⁻⁶ cm/s | – | – | – | –
4 | C1=C(n2ccnc2)Cc2ccccc21 | – | 33% | – | – | 448 nM
5 | C1=C(n2ccnc2)CCc2ccccc21 | – | – | – | – | 334 nM
6 | COc1ccc2c(c1)C=C(c1cccnc1)CC2 | – | – | – | – | 45 nM
7 | COc1ccc2c(c1)CCC(n1ccnc1)=C2 | – | – | – | – | 411 nM
8 | C[C@]12CC[C@H]3[C@@H](CCC4=CC(=O)CC[C@@]43C)[C@@H]1CC[C@@H]2O [TESTOSTERONE] | 9.4 ×10⁻⁶ cm/s | – | – | – | –
9 | C(=C\c1cccnc1)/c1ccccc1 | – | 25% | – | – | –
10 | COc1ccc2c(c1)CCC(c1ccncc1)=C2 | – | 15% | – | 2530 nM | 2830 nM
11 | C(=C/c1cccnc1)/c1ccccc1 | – | 54% | – | 288 nM | 735 nM
